From US20230210795A1, “3-HYDROXYBUTYRIC-ACID-CONTAINING OIL AND FAT COMPOSITION” (OSAKA GAS CO., LTD., priority 2020, published 2023)

Assay: Deliquescence test: 1 g of composition left uncovered in a petri dish at 25° C. for 1 week, appearance and weight change evaluated
Format: physicochemical
Parameters: key: High fluidity and silky smoothness.; Δ: Slightly moist but highly fluid powder.; x: Agglomeration or deliquescence occurred
Details: for Appearance after 1 week / Appearance after 1 day: left uncovered at 25° C.
Protocol: R-3HB crystals or R-3HB salts (3HB-Na: sodium salt, 3HB-K: potassium salt) and oil and fat particles were weighed in the proportions shown in Table 2 below. Each mixture thereof was milled for 3 seconds five times in a mill mixer (IJM-M800-W, produced by Iris Ohyama Inc.). 1 g of each of the 3HB-containing compositions obtained in the Examples and Comparative Examples was weighed in petri dishes and left uncovered in a room adjusted to 25° C. for 1 week. The appearance and weight change of each composition was then evaluated. As comparative examples, combinations of commonly used silicon dioxide or calcium silicate and fat and/or oil were evaluated. […] The evaluation was made according to the following criteria.
o: High fluidity and silky smoothness. Δ: Slightly moist but highly fluid powder. x: Agglomeration or deliquescence occurred.

Row | SMILES | Appearance immediately after milling | Appearance after 1 week | Appearance after 1 day
1 | CC(O)CC(=O)[O-].[K+] (stereo not drawn) [Comp. Ex. 2] | Δ | x | x
2 | CC(O)CC(=O)O (stereo not drawn) [Comp. Ex. 1, 3-Hydroxybutyric acid] | Δ | x (Partial | x (Partial
3 | CC(O)CC(=O)[O-].[Na+] (stereo not drawn) [Comp. Ex. 3] | ∘ | x | x
